Experimental findings from patent publication US20190223483A1, “SENSORY MODIFIER COMPOUNDS” (CARGILL, INCORPORATED, priority 2017, published 2019) are described below.

This experiment in a line: Roundtable assessment of astringency. The conditions noted are these: RebM 700 ppm, modifier between 0 ppm and about 500 ppm. In kind it is in vivo.

SMILES strings stand for the structures.

Description: For other sweetness attributes, the solutions were tested by a panel of at least four individuals that are highly-trained in tasting steviol glycoside solutions. The highly-trained panelists used a roundtable methodology to assess each sweetness attribute. To test each solution, the highly-trained panelists dispensed approximately 2 mL of each solution into their own mouths by transfer pipet, dispersed the solution by moving their tongues, and recorded a value for the particular sweetness attribute being tested. Between tasting solutions, the panelists were able to cleanse their palates with water. For each sweetness attribute, the panelist agreed on a descriptive scale with relative intensities assigned for each sweetness attribute and then recorded the values for each sweetness attribute against this. For example, this roundtable assessment of sweetness linger assigned a scale of 0 to 6 with a score of 0 indicating no sweetness linger and a score of 6 indicating extreme sweetness linger. Roundtable assessment of sweetness linger assigned a scale of 0 to 6 with a score of 0 indicating no sweetness linger and a score of 6 indicating extreme sweetness linger (0=none, 1=trace, 2=slight, 3=moderate, 4=definite, 5=strong, 6=extreme). Roundtable assessment of rounded assigned a scale of 0 to 3 with a score of 0 indicating spikey and a score of 3 indicating desirable rounded (0=none, 1=mostly spikey, some rounded, 2=mostly rounded, some spikey, 3=rounded). Roundtable assessment of mouthfeel assigned a scale of 0 to 2 with a score of 0 indicating water and a score of 2 indicating syrupy (0=water, 1=sucrosey, 2=syrupy). Roundtable assessment of bitterness assigned a scale of 0 to 6 with a score of 0 indicating no bitterness and a score of 6 indicating extreme sweetness linger (0=none, 1=trace, 2=slight, 3=moderate, 4=definite, 5=strong, 6=extreme). Roundtable assessment of off tastes assigned a scale of 0 to 6 with a score of 0 indicating no bitterness and a score of 6 indicating extreme off tastes (0=none, 1=trace, 2=slight, 3=moderate, 4=definite, 5=strong, 6=extreme).
Roundtable assessment of botanical notes assigned a scale of 0 to 5 with a score of 0 indicating no botanical notes and a score of 5 indicating strong (0=none, 1=trace, 2=slight, 3=moderate, 4=definite, 5=strong).
Solutions of steviol glycosides and sensory modifier compound were prepared at increasing ratios of sensory modifier to steviol glycoside by weight. […] The concentration of steviol glycosides was 700 ppm in each solution. The solutions were tested for astringency.

Turning to `O=C(/C=C/c1ccc(O)c(O)c1)O[C@@H](C(=O)O)[C@@H](OC(=O)/C=C/c1ccc(O)c(O)c1)C(=O)O` [tartaric backbone (cichoric acid), cichoric acid], the Astringency entry is on record as “imperceptible”.
